In ChEMBL document CHEMBL5543142, “Discovery of YFJ-36: Design, Synthesis, and Antibacterial Activities of Catechol-Conjugated β-Lactams against Gram-Negative Bacteria” (J Med Chem, 2024):

Legend:
Format in all cases: functional
Conditions in all cases: time 18-20 hrs
[1] = tested on: Acinetobacter baumannii; assay: Antibacterial activity against OXA-23 producing multidrug-resistant Acinetobacter baumannii clinical isolate 15-1 assessed as inhibition of bacterial growth incubated for 18 to 20 hrs by two fold serial dilution assay
[2] = tested on: Klebsiella pneumoniae; assay: Antibacterial activity against KPC-2 producing multidrug-resistant Klebsiella pneumoniae clinical isolate 15-3 assessed as inhibition of bacterial growth incubated for 18 to 20 hrs by two fold serial dilution assay
[3] = tested on: Acinetobacter baumannii; assay: Antibacterial activity against OXA-23 producing multidrug-resistant Acinetobacter baumannii clinical isolate 15-3 assessed as inhibition of bacterial growth incubated for 18 to 20 hrs by two fold serial dilution assay
[4] = tested on: Pseudomonas aeruginosa; assay: Antibacterial activity against IMP-4 producing multidrug-resistant Pseudomonas aeruginosa clinical isolate 19-17 assessed as inhibition of bacterial growth incubated for 18 to 20 hrs by two fold serial dilution assay
[5] = tested on: Pseudomonas aeruginosa; assay: Antibacterial activity against IMP-4 producing multidrug-resistant Pseudomonas aeruginosa clinical isolate 17-1 assessed as inhibition of bacterial growth incubated for 18 to 20 hrs by two fold serial dilution assay
[6] = tested on: Escherichia coli; assay: Antibacterial activity against ESBL-producing multidrug-resistant Escherichia coli clinical isolate 14-1 assessed as inhibition of bacterial growth incubated for 18 to 20 hrs by two fold serial dilution assay
[7] = tested on: Klebsiella pneumoniae; assay: Antibacterial activity against KPC-2 producing multidrug-resistant Klebsiella pneumoniae clinical isolate 15-5 assessed as inhibition of bacterial growth incubated for 18 to 20 hrs by two fold serial dilution assay
[8] = tested on: Pseudomonas aeruginosa; assay: Antibacterial activity against IMP-4 producing multidrug-resistant Pseudomonas aeruginosa clinical isolate 17-13 assessed as inhibition of bacterial growth incubated for 18 to 20 hrs by two fold serial dilution assay
[9] = tested on: Escherichia coli; assay: Antibacterial activity against Escherichia coli ATCC35218 assessed as inhibition of bacterial growth incubated for 18 to 20 hrs by two fold serial dilution assay
[10] = tested on: Acinetobacter baumannii; assay: Antibacterial activity against OXA-23 producing multidrug-resistant Acinetobacter baumannii clinical isolate 15-5 assessed as inhibition of bacterial growth incubated for 18 to 20 hrs by two fold serial dilution assay
[11] = tested on: Escherichia coli; assay: Antibacterial activity against ESBL-producing multidrug-resistant Escherichia coli clinical isolate 14-2 assessed as inhibition of bacterial growth incubated for 18 to 20 hrs by two fold serial dilution assay
[12] = tested on: Acinetobacter baumannii; assay: Antibacterial activity against OXA-23 producing multidrug-resistant Acinetobacter baumannii clinical isolate 15-4 assessed as inhibition of bacterial growth incubated for 18 to 20 hrs by two fold serial dilution assay
[13] = tested on: Acinetobacter baumannii; assay: Antibacterial activity against OXA-23 producing multidrug-resistant Acinetobacter baumannii clinical isolate 15-2 assessed as inhibition of bacterial growth incubated for 18 to 20 hrs by two fold serial dilution assay
[14] = tested on: Klebsiella pneumoniae; assay: Antibacterial activity against KPC-2 producing multidrug-resistant Klebsiella pneumoniae clinical isolate 15-1 assessed as inhibition of bacterial growth incubated for 18 to 20 hrs by two fold serial dilution assay
[15] = tested on: Escherichia coli; assay: Antibacterial activity against ESBL-producing multidrug-resistant Escherichia coli clinical isolate 14-4 assessed as inhibition of bacterial growth incubated for 18 to 20 hrs by two fold serial dilution assay
[16] = tested on: Klebsiella pneumoniae; assay: Antibacterial activity against KPC-2 producing multidrug-resistant Klebsiella pneumoniae clinical isolate 15-2 assessed as inhibition of bacterial growth incubated for 18 to 20 hrs by two fold serial dilution assay
[17] = tested on: Pseudomonas aeruginosa; assay: Antibacterial activity against IMP-4 producing multidrug-resistant Pseudomonas aeruginosa clinical isolate 15-4 assessed as inhibition of bacterial growth incubated for 18 to 20 hrs by two fold serial dilution assay
[18] = tested on: Pseudomonas aeruginosa; assay: Antibacterial activity against IMP-4 producing multidrug-resistant Pseudomonas aeruginosa clinical isolate 15-5 assessed as inhibition of bacterial growth incubated for 18 to 20 hrs by two fold serial dilution assay
[19] = tested on: Pseudomonas aeruginosa; assay: Antibacterial activity against IMP-4 producing multidrug-resistant Pseudomonas aeruginosa clinical isolate 15-1 assessed as inhibition of bacterial growth incubated for 18 to 20 hrs by two fold serial dilution assay
[20] = tested on: Pseudomonas aeruginosa; assay: Antibacterial activity against Pseudomonas aeruginosa ATCC 27853 assessed as inhibition of bacterial growth incubated for 18 to 20 hrs by two fold serial dilution assay
[21] = tested on: Acinetobacter baumannii; assay: Antibacterial activity against OXA-23 producing multidrug-resistant Acinetobacter baumannii clinical isolate 17-2 assessed as inhibition of bacterial growth incubated for 18 to 20 hrs by two fold serial dilution assay
[22] = tested on: Pseudomonas aeruginosa; assay: Antibacterial activity against IMP-4 producing multidrug-resistant Pseudomonas aeruginosa clinical isolate 19-1 assessed as inhibition of bacterial growth incubated for 18 to 20 hrs by two fold serial dilution assay
[23] = tested on: Pseudomonas aeruginosa; assay: Antibacterial activity against IMP-4 producing multidrug-resistant Pseudomonas aeruginosa clinical isolate 19-5 assessed as inhibition of bacterial growth incubated for 18 to 20 hrs by two fold serial dilution assay

Compound | MIC [1] | MIC [2] | MIC [3] | MIC [4] | MIC [5] | MIC [6] | MIC [7] | MIC [8] | MIC [9] | MIC [10] | MIC [11] | MIC [12] | MIC [13] | MIC [14] | MIC [15] | MIC [16] | MIC [17] | MIC [18] | MIC [19] | MIC [20] | other results
Nc1nc(/C(=N/OC(C(=O)O)C2CCCC2)C(=O)N[C@@H]2C(=O)N3C(C(=O)O)=C(CSCCNC(=O)c4ccc(O)c(O)c4Cl)CS[C@H]23)cs1.O=C(O)C(F)(F)F (stereo partly specified) | 32 mg/L | 4 mg/L | 16 mg/L | 1 mg/L | 1 mg/L | 0.25 mg/L | 2 mg/L | 8 mg/L | 0.25 mg/L | 32 mg/L | 2 mg/L | 16 mg/L | 16 mg/L | 2 mg/L | 0.25 mg/L | 2 mg/L |  |  |  |  | 
Nc1nc(/C(=N/OC(C(=O)O)C2CC2)C(=O)N[C@@H]2C(=O)N3C(C(=O)O)=C(CSCCNC(=O)c4ccc(O)c(O)c4Cl)CS[C@H]23)cs1.O=C(O)C(F)(F)F (stereo partly specified) | 32 mg/L | 64 mg/L | 64 mg/L | 1 mg/L | 1 mg/L | 0.5 mg/L | 4 mg/L | 1 mg/L | 0.25 mg/L | 64 mg/L | 4 mg/L | 64 mg/L | 64 mg/L | 16 mg/L | 0.5 mg/L | 4 mg/L |  |  |  |  | 
Nc1nc(/C(=N/OC2(C(=O)O)CC2)C(=O)N[C@@H]2C(=O)N3C(C(=O)O)=C(CSCCNC(=O)c4ccc(O)c(O)c4Cl)CS[C@H]23)cs1.O=C(O)C(F)(F)F | 64 mg/L | > 64 mg/L | 32 mg/L |  |  | 0.5 mg/L | 32 mg/L |  |  | 64 mg/L | 2 mg/L | 64 mg/L | 64 mg/L | 16 mg/L | 64 mg/L | 32 mg/L | 1 mg/L | 4 mg/L | 1 mg/L | 4 mg/L | 
Cc1sc(N)nc1/C(=N/OC(C(=O)O)C1CCC(F)(F)CC1)C(=O)N[C@@H]1C(=O)N2C(C(=O)O)=C(CSCCNC(=O)c3ccc(O)c(O)c3Cl)CS[C@H]12.O=C(O)C(F)(F)F (stereo partly specified) | 4 mg/L | 8 mg/L | 4 mg/L | 0.25 mg/L |  | 0.5 mg/L | 2 mg/L | 0.25 mg/L | 0.25 mg/L | 2 mg/L | 1 mg/L | 4 mg/L | 2 mg/L | 2 mg/L | 0.5 mg/L | 4 mg/L |  |  |  |  | MIC [21]: 0.125 mg/L; MIC [22]: 8 mg/L; MIC [23]: 1 mg/L
CC(C)(O/N=C(\C(=O)N[C@@H]1C(=O)N2C(C(=O)O)=C(CSCCNC(=O)c3ccc(O)c(O)c3Cl)CS[C@H]12)c1csc(N)n1)C(=O)O.O=C(O)C(F)(F)F | 32 mg/L | 8 mg/L | 32 mg/L |  |  | 0.25 mg/L | 2 mg/L |  |  | 64 mg/L | 2 mg/L | 32 mg/L | 32 mg/L | 8 mg/L | 1 mg/L | 4 mg/L | 4 mg/L | 4 mg/L | 2 mg/L | 0.5 mg/L | 
CC(C)(C)C(O/N=C(\C(=O)N[C@@H]1C(=O)N2C(C(=O)O)=C(CS[C@H]3CC[C@@H](NC(=O)c4ccc(O)c(O)c4Cl)CC3)CS[C@H]12)c1csc(N)n1)C(=O)O.O=C(O)C(F)(F)F (stereo partly specified) | 8 mg/L | 32 mg/L | 8 mg/L |  |  | 0.5 mg/L | 1 mg/L |  |  | 8 mg/L | 4 mg/L | 4 mg/L | 4 mg/L | 4 mg/L | 4 mg/L | 16 mg/L | 16 mg/L | 8 mg/L | 8 mg/L | 8 mg/L | 
Nc1nc(/C(=N/OC(C(=O)O)C2CCS(=O)(=O)CC2)C(=O)N[C@@H]2C(=O)N3C(C(=O)O)=C(CSCCNC(=O)c4ccc(O)c(O)c4Cl)CS[C@H]23)cs1.O=C(O)C(F)(F)F (stereo partly specified) | 2 mg/L | 2 mg/L | 2 mg/L | 2 mg/L |  | 1 mg/L | 0.5 mg/L | 1 mg/L |  | 4 mg/L | 1 mg/L | 4 mg/L | 2 mg/L | 2 mg/L | 0.5 mg/L | 2 mg/L |  |  |  |  | 
CC(C)(O/N=C(\C(=O)N[C@@H]1C(=O)N2C(C(=O)O)=C(CS[C@@H]3C[C@H]4CC[C@@H](C3)N4C(=O)c3ccc(O)c(O)c3Cl)CS[C@H]12)c1csc(N)n1)C(=O)O.O=C(O)C(F)(F)F | 64 mg/L | 64 mg/L | 64 mg/L |  |  | 0.25 mg/L | 1 mg/L |  |  | > 64 mg/L | 16 mg/L | > 64 mg/L | 64 mg/L | 2 mg/L | 16 mg/L | 1 mg/L | 16 mg/L | 16 mg/L | 16 mg/L | 2 mg/L | 
CC(C)(C)C(O/N=C(\C(=O)N[C@@H]1C(=O)N2C(C(=O)O)=C(CSCCNC(=O)c3ccc(O)c(O)c3Cl)CS[C@H]12)c1csc(N)n1)C(=O)O.O=C(O)C(F)(F)F (stereo partly specified) | 2 mg/L | 16 mg/L | 2 mg/L |  |  | 0.06 mg/L | 0.5 mg/L |  |  | 2 mg/L | 1 mg/L | 1 mg/L | 1 mg/L | 0.25 mg/L | 2 mg/L | 1 mg/L | 8 mg/L | 4 mg/L | 4 mg/L | 4 mg/L | 
Nc1nc(/C(=N/OC(C(=O)O)C2CCSCC2)C(=O)N[C@@H]2C(=O)N3C(C(=O)O)=C(CSCCNC(=O)c4ccc(O)c(O)c4Cl)CS[C@H]23)cs1.O=C(O)C(F)(F)F (stereo partly specified) | 4 mg/L | 4 mg/L | 4 mg/L | 0.5 mg/L |  | 0.125 mg/L | 8 mg/L | 1 mg/L | 0.25 mg/L | 4 mg/L | 0.5 mg/L | 8 mg/L | 8 mg/L | 2 mg/L | 0.25 mg/L | 4 mg/L |  |  |  |  | 
C[C@@](O/N=C(\C(=O)N[C@@H]1C(=O)N2C(C(=O)O)=C(CSCCNC(=O)c3ccc(O)c(O)c3Cl)CS[C@H]12)c1csc(N)n1)(C(=O)O)C(F)(F)F.O=C(O)C(F)(F)F | 16 mg/L | 2 mg/L | 32 mg/L | 0.5 mg/L | 4 mg/L | 0.125 mg/L | 1 mg/L | 0.125 mg/L | 0.06 mg/L | 16 mg/L | 0.5 mg/L | 16 mg/L | 32 mg/L | 1 mg/L | 0.5 mg/L | 1 mg/L |  |  |  |  | 
Nc1nc(/C(=N/OC(C(=O)O)C2CCOCC2)C(=O)N[C@@H]2C(=O)N3C(C(=O)O)=C(CSCCNC(=O)c4ccc(O)c(O)c4Cl)CS[C@H]23)cs1.O=C(O)C(F)(F)F (stereo partly specified) | 32 mg/L | 8 mg/L | 16 mg/L | 8 mg/L |  | 8 mg/L | 16 mg/L | 1 mg/L | 4 mg/L | 16 mg/L | 16 mg/L | 32 mg/L | 32 mg/L | 16 mg/L | 4 mg/L | 16 mg/L |  |  |  |  | 
Nc1nc(/C(=N/OC(C(=O)O)C2CCC2)C(=O)N[C@@H]2C(=O)N3C(C(=O)O)=C(CSCCNC(=O)c4ccc(O)c(O)c4Cl)CS[C@H]23)cs1.O=C(O)C(F)(F)F (stereo partly specified) | 32 mg/L | 16 mg/L | 16 mg/L | 0.5 mg/L | 8 mg/L | 0.5 mg/L | 4 mg/L | 1 mg/L | 0.125 mg/L | 64 mg/L | 4 mg/L | 32 mg/L | 32 mg/L | 8 mg/L | 0.25 mg/L | 4 mg/L |  |  |  |  | 
